In ChEMBL document CHEMBL1125939, “Inhibition of steroid 5-reductase by 3-nitrosteroids: synthesis, mechanism of inhibition, and in vivo activity” (Bioorg Med Chem Lett, 1991) one finds Ki and Ki app data, which are given here for five compounds.

Assay [1] is described as follows: Compound was tested for in vitro inhibitory activity against cynomolgus monkey Steroid 5-alpha-reductase. The arrangement: species or system Cercopithecidae.
Assay [2] deals with T1, 3-oxo-5-alpha-steroid 4-dehydrogenase 2 (Homo sapiens, UniProt P31213).
T1 sequence (P31213 whole entry): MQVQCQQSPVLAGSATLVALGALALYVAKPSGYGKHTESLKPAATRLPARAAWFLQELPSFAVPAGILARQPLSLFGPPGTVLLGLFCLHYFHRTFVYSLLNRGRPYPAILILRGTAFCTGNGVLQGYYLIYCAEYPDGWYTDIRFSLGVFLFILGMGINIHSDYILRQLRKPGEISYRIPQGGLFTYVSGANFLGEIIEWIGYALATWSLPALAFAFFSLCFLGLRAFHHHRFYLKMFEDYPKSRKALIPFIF
Nature of the assay: Compound was tested for inhibitory activity against human prostatic Steroid 5-alpha-reductase. The note with it: read-out: Ki app.

Assay [3] concerns the target T1, 3-oxo-5-alpha-steroid 4-dehydrogenase 2. Nature of the assay: Compound was tested for inhibitory activity against human prostatic Steroid 5-alpha-reductase at 5 uM concentration; NS - No significant inhibition.

Some results are limits rather than exact numbers.

On to `CC(C)N(C(=O)[C@H]1CCC2C3CC[C@H]4C=C([N+](=O)[O-])CC[C@]4(C)C3CC[C@@]21C)C(C)C` (stereo partly specified), for which the Ki is less than 0.001 µM in assay [1] and 0.05 µM in assay [2]. For `CC(C)N(C(=O)[C@H]1CC[C@H]2[C@@H]3CCc4cc(C(=O)O)ccc4[C@H]3CC[C@]12C)C(C)C`, the Ki in assay [2] was 0.02 µM. In the case of `CC(C)N(C(=O)[C@H]1CC[C@H]2[C@@H]3CCc4cc([N+](=O)[O-])ccc4[C@H]3CC[C@]12C)C(C)C`, in assay [3], the Ki app entry was “Not Active”. Take `CC(C)N(C(=O)[C@H]1CCC2C3CC=C4C=C(C(=O)O)CC[C@]4(C)C3CC[C@@]21C)C(C)C` (stereo partly specified): the Ki in assay [1] was 0.004 µM. Consider `CC(C)N(C(=O)[C@H]1CCC2C3CC=C4C=C([N+](=O)[O-])CC[C@]4(C)C3CC[C@@]21C)C(C)C` (stereo partly specified), for which the Ki in assay [2] was found to be 0.59 µM.
